Laboratory results: ChEMBL document CHEMBL4507296 (2021)

Tests used:
[1] = target: Mu-type opioid receptor (Homo sapiens) (UniProt P35372); test: m-Opioid (human) CEREP ligand profiling; conditions: Compound concentration 10.0 uM
[2] = system: Tyrosine-protein kinase ABL1 (Homo sapiens), P00519 [H396P]; conditions: Compound concentration 1000.0 nM
[3] = target: Activin receptor type-1B (Homo sapiens) (UniProt P36896); conditions: Compound concentration 1000.0 nM
[4] = target: RAC-gamma serine/threonine-protein kinase (Homo sapiens) (UniProt Q9Y243); conditions: Compound concentration 1000.0 nM
[5] = target: NUAK family SNF1-like kinase 1 (Homo sapiens) (UniProt O60285); conditions: Compound concentration 1000.0 nM
[6] = target: Myotonin-protein kinase (Homo sapiens) (UniProt Q09013); conditions: Compound concentration 1000.0 nM
[7] = target: Dual specificity tyrosine-phosphorylation-regulated kinase 1A (Homo sapiens) (UniProt Q13627); conditions: Compound concentration 1000.0 nM
[8] = target: Epidermal growth factor receptor (Homo sapiens) (UniProt P00533); conditions: Compound concentration 1000.0 nM
[9] = system: Epidermal growth factor receptor (Homo sapiens), P00533 [UNDEFINED MUTATION]; conditions: Compound concentration 1000.0 nM
[10] = system: Epidermal growth factor receptor (Homo sapiens), P00533 [L861Q]; conditions: Compound concentration 1000.0 nM
[11] = system: Epidermal growth factor receptor (Homo sapiens), P00533 [T790M]; conditions: Compound concentration 1000.0 nM
[12] = target: Ephrin type-A receptor 2 (Homo sapiens) (UniProt P29317); conditions: Compound concentration 1000.0 nM
[13] = target: Ephrin type-A receptor 4 (Homo sapiens) (UniProt P54764); conditions: Compound concentration 1000.0 nM
[14] = target: Tyrosine-protein kinase Fgr (Homo sapiens) (UniProt P09769); conditions: Compound concentration 1000.0 nM
[15] = target: Interleukin-1 receptor-associated kinase 3 (Homo sapiens) (UniProt Q9Y616); conditions: Compound concentration 1000.0 nM
[16] = target: Serine/threonine-protein kinase MAK (Homo sapiens) (UniProt P20794); conditions: Compound concentration 1000.0 nM
[17] = target: Mitogen-activated protein kinase kinase kinase kinase 4 (Homo sapiens) (UniProt O95819); conditions: Compound concentration 1000.0 nM
[18] = target: Dual specificity mitogen-activated protein kinase kinase 1 (Homo sapiens) (UniProt Q02750); conditions: Compound concentration 1000.0 nM
[19] = target: Mitogen-activated protein kinase kinase kinase 9 (Homo sapiens) (UniProt P80192); conditions: Compound concentration 1000.0 nM
[20] = target: Serine/threonine-protein kinase 3 (Homo sapiens) (UniProt Q13188); conditions: Compound concentration 1000.0 nM
[21] = target: Myosin-IIIb (Homo sapiens) (UniProt Q8WXR4); conditions: Compound concentration 1000.0 nM
[22] = target: Serine/threonine-protein kinase OSR1 (Homo sapiens) (UniProt O95747); conditions: Compound concentration 1000.0 nM
[23] = target: Mitogen-activated protein kinase 13 (Homo sapiens) (UniProt O15264); conditions: Compound concentration 1000.0 nM
[24] = system: Phosphatidylinositol 4,5-bisphosphate 3-kinase catalytic subunit alpha isoform (Homo sapiens), P42336 [E542K]; conditions: Compound concentration 1000.0 nM
[25] = target: Serine/threonine-protein kinase pim-2 (Homo sapiens) (UniProt Q9P1W9); conditions: Compound concentration 1000.0 nM
[26] = target: Serine/threonine-protein kinase N2 (Homo sapiens) (UniProt Q16513); conditions: Compound concentration 1000.0 nM
[27] = target: Ribosomal protein S6 kinase alpha-2 (Homo sapiens) (UniProt Q15349); conditions: Compound concentration 1000.0 nM
[28] = target: Ribosomal protein S6 kinase alpha-6 (Homo sapiens) (UniProt Q9UK32); conditions: Compound concentration 1000.0 nM
[29] = target: Serine/threonine-protein kinase 33 (Homo sapiens) (UniProt Q9BYT3); conditions: Compound concentration 1000.0 nM
[30] = target: Tyrosine-protein kinase Tec (Homo sapiens) (UniProt P42680); conditions: Compound concentration 1000.0 nM
[31] = target: Angiopoietin-1 receptor (Homo sapiens) (UniProt Q02763); conditions: Compound concentration 1000.0 nM
[32] = target: TRAF2 and NCK-interacting protein kinase (Homo sapiens) (UniProt Q9UKE5); conditions: Compound concentration 1000.0 nM
[33] = target: Non-receptor tyrosine-protein kinase TNK1 (Homo sapiens) (UniProt Q13470); conditions: Compound concentration 1000.0 nM
[34] = target: Non-receptor tyrosine-protein kinase TYK2 (Homo sapiens) (UniProt P29597); conditions: Compound concentration 1000.0 nM
[35] = target: Serine/threonine-protein kinase 32B (Homo sapiens) (UniProt Q9NY57); conditions: Compound concentration 1000.0 nM
[36] = target: 5-hydroxytryptamine receptor 6 (Homo sapiens) (UniProt P50406); conditions: Compound concentration 10.0 uM
[37] = target: T1, Alpha-2B adrenergic receptor (Homo sapiens) (UniProt P18089); conditions: Compound concentration 10.0 uM
T1 sequence (whole entry): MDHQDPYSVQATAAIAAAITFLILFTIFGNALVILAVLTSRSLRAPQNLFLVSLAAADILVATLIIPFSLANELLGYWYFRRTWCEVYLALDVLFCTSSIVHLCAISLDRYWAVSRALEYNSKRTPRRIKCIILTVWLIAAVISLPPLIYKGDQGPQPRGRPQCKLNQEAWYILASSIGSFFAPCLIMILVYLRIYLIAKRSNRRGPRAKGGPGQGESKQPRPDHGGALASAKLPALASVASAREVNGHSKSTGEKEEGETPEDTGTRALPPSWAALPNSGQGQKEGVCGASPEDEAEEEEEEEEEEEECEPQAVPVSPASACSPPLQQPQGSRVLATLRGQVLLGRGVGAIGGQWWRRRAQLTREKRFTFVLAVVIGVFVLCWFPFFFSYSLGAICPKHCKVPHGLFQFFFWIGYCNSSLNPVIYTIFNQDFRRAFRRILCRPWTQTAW

[38] = target: Alpha-2C adrenergic receptor (Homo sapiens) (UniProt P18825); conditions: Compound concentration 10.0 uM
[39] = target: Alpha-1D adrenergic receptor (Homo sapiens) (UniProt P25100); conditions: Compound concentration 10.0 uM

Alpha-2C adrenergic receptor (Homo sapiens), sequence (P18825 whole entry): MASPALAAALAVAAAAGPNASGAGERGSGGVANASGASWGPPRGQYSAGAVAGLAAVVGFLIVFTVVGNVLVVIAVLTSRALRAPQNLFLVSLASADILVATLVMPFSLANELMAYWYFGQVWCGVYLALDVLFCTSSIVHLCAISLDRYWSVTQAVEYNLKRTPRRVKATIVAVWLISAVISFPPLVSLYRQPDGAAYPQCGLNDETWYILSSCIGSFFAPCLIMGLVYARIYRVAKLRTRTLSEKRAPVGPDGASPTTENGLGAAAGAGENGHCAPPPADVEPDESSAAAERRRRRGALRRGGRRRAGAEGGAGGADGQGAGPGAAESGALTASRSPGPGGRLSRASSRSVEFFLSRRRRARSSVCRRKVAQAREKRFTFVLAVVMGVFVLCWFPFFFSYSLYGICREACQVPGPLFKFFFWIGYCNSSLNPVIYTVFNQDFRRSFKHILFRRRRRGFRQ
Serine/threonine-protein kinase N2 (Homo sapiens), sequence (Q16513 whole entry, looked up): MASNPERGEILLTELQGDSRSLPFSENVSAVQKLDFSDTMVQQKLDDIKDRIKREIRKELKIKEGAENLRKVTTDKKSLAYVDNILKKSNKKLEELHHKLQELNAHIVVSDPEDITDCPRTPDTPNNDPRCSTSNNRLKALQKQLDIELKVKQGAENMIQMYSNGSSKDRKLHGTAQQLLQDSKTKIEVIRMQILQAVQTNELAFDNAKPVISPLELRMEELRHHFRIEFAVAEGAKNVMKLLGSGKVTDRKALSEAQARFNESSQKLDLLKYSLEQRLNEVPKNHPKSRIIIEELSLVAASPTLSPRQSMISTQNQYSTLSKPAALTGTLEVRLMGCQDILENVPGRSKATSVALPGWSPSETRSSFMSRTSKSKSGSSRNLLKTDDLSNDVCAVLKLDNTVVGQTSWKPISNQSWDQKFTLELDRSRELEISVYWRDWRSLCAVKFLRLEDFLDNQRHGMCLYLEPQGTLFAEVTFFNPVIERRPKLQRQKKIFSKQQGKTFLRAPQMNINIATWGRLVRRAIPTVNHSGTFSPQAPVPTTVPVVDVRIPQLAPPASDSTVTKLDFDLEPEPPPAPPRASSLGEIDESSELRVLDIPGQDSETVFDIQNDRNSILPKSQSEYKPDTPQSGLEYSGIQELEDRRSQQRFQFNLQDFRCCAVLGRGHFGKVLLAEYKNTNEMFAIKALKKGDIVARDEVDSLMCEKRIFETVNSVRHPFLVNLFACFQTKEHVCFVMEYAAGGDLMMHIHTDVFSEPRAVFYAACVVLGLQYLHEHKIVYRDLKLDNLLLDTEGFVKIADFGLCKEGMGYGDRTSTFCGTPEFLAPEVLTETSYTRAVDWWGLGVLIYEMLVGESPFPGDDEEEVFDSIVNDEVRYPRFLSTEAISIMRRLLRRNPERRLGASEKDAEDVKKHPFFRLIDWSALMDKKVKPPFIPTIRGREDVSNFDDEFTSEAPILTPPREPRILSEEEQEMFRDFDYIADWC
Tyrosine-protein kinase Tec (Homo sapiens), sequence (P42680 whole entry): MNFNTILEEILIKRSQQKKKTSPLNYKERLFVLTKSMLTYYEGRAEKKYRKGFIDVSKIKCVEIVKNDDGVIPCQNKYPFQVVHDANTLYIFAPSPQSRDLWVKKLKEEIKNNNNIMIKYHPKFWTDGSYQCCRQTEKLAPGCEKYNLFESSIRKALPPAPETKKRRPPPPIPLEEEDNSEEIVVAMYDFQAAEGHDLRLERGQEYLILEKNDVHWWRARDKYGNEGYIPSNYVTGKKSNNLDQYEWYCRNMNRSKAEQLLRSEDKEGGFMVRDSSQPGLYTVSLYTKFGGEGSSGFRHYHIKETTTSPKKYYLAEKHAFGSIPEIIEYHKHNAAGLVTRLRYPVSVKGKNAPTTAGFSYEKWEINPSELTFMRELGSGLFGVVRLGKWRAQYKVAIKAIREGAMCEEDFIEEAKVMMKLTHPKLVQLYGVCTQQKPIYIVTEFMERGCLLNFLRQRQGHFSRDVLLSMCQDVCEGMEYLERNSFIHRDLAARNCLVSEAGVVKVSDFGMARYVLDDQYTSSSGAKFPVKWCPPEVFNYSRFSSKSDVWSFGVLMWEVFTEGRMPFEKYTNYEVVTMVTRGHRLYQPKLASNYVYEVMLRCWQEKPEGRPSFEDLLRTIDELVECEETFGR
Non-receptor tyrosine-protein kinase TYK2 (Homo sapiens), sequence (P29597 whole entry): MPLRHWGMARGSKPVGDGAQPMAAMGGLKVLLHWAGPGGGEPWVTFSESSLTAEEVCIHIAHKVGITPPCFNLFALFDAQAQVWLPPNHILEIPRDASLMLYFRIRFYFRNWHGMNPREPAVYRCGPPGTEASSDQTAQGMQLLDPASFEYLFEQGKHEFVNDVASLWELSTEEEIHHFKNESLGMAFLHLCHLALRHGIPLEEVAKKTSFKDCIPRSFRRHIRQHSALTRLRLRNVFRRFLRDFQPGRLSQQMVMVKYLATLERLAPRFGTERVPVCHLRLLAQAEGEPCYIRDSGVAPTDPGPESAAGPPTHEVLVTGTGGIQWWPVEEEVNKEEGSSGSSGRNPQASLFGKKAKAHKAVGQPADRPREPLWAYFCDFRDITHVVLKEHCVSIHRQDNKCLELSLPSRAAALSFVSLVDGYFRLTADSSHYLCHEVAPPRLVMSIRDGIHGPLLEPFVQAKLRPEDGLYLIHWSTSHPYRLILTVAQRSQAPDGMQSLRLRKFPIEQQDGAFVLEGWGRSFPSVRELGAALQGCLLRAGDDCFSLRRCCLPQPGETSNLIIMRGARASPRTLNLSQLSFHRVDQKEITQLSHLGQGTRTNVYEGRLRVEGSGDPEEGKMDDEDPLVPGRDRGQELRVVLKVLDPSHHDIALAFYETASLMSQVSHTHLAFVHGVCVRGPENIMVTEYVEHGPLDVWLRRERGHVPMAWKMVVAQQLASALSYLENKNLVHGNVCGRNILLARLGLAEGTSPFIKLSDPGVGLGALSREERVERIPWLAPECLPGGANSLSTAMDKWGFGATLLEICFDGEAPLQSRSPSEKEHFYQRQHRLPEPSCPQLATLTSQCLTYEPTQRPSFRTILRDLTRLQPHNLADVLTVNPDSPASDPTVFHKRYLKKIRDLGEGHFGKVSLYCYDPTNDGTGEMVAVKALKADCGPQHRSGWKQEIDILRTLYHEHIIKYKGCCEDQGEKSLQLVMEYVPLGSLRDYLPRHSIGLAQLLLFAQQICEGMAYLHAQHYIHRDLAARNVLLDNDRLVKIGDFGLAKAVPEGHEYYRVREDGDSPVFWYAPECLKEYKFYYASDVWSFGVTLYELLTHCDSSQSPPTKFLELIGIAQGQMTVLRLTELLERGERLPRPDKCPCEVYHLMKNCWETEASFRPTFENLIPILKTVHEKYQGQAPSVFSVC
RAC-gamma serine/threonine-protein kinase (Homo sapiens), sequence (Q9Y243 whole entry): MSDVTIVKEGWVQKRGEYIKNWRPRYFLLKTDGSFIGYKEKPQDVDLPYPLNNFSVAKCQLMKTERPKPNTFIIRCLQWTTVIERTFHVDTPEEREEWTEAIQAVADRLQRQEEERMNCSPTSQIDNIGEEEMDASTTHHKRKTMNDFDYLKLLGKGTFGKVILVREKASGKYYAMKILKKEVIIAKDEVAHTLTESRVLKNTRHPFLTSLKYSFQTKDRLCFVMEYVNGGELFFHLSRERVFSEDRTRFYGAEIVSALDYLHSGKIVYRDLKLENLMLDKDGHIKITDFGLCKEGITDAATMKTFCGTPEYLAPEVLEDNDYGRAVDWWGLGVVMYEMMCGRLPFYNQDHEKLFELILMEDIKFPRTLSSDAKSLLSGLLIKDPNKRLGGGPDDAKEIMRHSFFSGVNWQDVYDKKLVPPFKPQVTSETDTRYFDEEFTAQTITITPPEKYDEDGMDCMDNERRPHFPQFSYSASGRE
Myosin-IIIb (Homo sapiens), sequence (Q8WXR4 whole entry): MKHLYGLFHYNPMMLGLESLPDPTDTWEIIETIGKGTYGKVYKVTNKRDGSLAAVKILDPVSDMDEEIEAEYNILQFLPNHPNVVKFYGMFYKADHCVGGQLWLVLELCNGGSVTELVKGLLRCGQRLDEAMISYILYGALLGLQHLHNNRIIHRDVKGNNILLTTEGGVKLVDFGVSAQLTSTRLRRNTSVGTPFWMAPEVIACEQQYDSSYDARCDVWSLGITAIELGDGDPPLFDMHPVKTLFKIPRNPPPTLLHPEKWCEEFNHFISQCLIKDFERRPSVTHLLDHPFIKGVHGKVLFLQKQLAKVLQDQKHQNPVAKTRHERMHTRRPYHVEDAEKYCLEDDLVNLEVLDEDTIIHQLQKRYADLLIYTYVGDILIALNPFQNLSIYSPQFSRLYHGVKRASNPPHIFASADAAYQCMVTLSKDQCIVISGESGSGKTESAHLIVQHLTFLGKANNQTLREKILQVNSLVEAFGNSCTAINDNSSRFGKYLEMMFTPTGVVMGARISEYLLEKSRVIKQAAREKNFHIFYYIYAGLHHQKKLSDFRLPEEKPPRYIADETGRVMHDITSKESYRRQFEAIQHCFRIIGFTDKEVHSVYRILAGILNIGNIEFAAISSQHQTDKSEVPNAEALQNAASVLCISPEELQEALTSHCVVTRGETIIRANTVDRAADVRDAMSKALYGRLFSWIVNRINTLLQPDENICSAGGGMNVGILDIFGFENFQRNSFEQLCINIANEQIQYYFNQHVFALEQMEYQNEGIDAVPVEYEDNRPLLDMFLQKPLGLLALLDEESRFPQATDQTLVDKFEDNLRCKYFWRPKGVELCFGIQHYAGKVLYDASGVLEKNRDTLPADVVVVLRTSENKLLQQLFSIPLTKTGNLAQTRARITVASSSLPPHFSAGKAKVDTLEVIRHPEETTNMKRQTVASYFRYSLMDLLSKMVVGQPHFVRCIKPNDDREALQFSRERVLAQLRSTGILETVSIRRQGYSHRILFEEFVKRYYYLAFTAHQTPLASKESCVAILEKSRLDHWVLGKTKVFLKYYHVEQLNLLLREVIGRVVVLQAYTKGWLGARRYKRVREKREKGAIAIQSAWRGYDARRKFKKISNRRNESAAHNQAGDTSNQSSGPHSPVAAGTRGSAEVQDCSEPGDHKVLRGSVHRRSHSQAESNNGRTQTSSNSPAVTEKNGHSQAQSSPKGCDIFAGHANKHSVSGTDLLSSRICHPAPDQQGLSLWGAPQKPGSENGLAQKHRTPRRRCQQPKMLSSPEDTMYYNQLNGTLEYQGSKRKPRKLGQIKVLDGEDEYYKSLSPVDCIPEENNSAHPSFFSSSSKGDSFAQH

C[C@H](c1ccc(F)cc1)N(Cc1cccc(C(=O)O)c1)C(=O)c1cnc2ccccc2c1 [PF-05105679]
inhibition [1]: 25%
residual activity [2]: 73%
residual activity [3]: 100%
residual activity [4]: 100%
residual activity [5]: 100%
residual activity [6]: 88%
residual activity [7]: 100%
residual activity [8]: 100%
residual activity [9]: 100%
residual activity [10]: 100%
residual activity [11]: 100%
residual activity [12]: 100%
residual activity [13]: 92%
residual activity [14]: 100%
residual activity [15]: 100%
residual activity [16]: 100%
residual activity [17]: 96%
residual activity [18]: 100%
residual activity [19]: 100%
residual activity [20]: 100%
residual activity [21]: 100%
residual activity [22]: 100%
residual activity [23]: 95%
residual activity [24]: 49%
residual activity [25]: 100%
residual activity [26]: 86%
residual activity [27]: 100%
residual activity [28]: 100%
residual activity [29]: 100%
residual activity [30]: 80%
residual activity [31]: 98%
residual activity [32]: 95%
residual activity [33]: 100%
residual activity [34]: 100%
residual activity [35]: 97%
inhibition [36]: 3.57%
inhibition [37]: 20.2%
inhibition [38]: 3.68%
inhibition [39]: 27.3%
